Laboratory results as given in article PMC2063170, “A phase I clinical and pharmacokinetic study of the new topoisomerase inhibitor GI147211 given as a 72-h continuous infusion” (British Journal of Cancer, 1998).
“And” between values parts separate entries of the source, which are not always exact repeats. Identical values can stand only once.

Experiments:
[1] = Phase I pharmacokinetics, 72-h continuous infusion, whole-blood and urine HPLC
From the text: (§1) Brrtish Joumal of Cancer(1998) 78(10). 1329-1336 @ 1998 Cancer Research Campaign A phase I clinical and pharmacokinetic study of the new topoisomerase inhibitor G1147211 given as a 72-h continuous infusion L Paz-Aresl*, R Kunkal 2, D DeMarial-3, J Cassidy' 4, M Alden3, P Beranek2, S Kaye', D Littlefield2, D Reilly3, S Depee2, P Wissel2, C Twelves' and P O'Dwyer3 CRC Department of Medical Oncology. University of Glasgow. Westem Infirmary Hospital. Glasgow Gll 6NT. UK; 2Glaxo Wellcome Research. Five Moore Drive. Research Triangle Park. NC 27709. USA; 'Fox Chase Cancer Center. 7701 Burholme Avenue. Philadelphia, PA 19111. USA: 4Thomas Jefferson University. Kimmel Cancer Institute. Bluemle Life Sciences Building. 233 S. 10th Street. Suite 502. Philadelphia. PA 19107. […] This study was designed to determine the maximum tolerated dose of Gl147211 as a 72-h infusion and to describe its pharmacokinetics and pharmacodynamics on this schedule. In a single-arm, rising-dose study in patients with advanced cancer, eight cohorts of three or more patients received 72-h infusions of G1147211 at doses ranging from 0.25 to 2.5 mg m-2 day-'. […] Whole-blood G1147211 lactone, total blood and total concentrations were measured during and over the 12 h following the infusion. […] Extensive phase 11 evaluation of this compound and further phase I trials evaluating more prolonged infusions are ongoing. Keywords: G1147211: GG211: camptothecin analogues: topoisomerase I inhibitor; phase I trial; pharmacokinetics: pharmacodynamics: continuous infusion GI 147211 (7-4 methyl piperazinomethilene)- 10.1 1 -ethylenedioxy - 20-(S camptothecin: Figure 1) is a totally synthetic analogue of camptothecin. a natural product isolated from Camptotheca acuminata (WAall et al. 1966: Emerson et al. 1995). […] The nuclear enzyvme DNA topoisomerase I. x hich relaxes DNA supercoils arising during, replication and gene tran- scription. has been identified as the specific targret of camptothecin (Hsianer and Liu. 1988: Wall and Wani. 1995).

[2] = tested on: refractory solid tumours; assay: Anti-tumour activity in phase I patients; assay type: in vivo
From the text: as §1

[3] = tested on: neutrophils and platelets; assay: Pharmacodynamics: sigmoid Emax (Hill) fit of % decrease in neutrophils or platelets vs lactone Css; assay type: in vivo, patients; details: sigmoid Emax model
From the text: (§2) Brrtish Joumal of Cancer(1998) 78(10). 1329-1336 @ 1998 Cancer Research Campaign A phase I clinical and pharmacokinetic study of the new topoisomerase inhibitor G1147211 given as a 72-h continuous infusion L Paz-Aresl*, R Kunkal 2, D DeMarial-3, J Cassidy' 4, M Alden3, P Beranek2, S Kaye', D Littlefield2, D Reilly3, S Depee2, P Wissel2, C Twelves' and P O'Dwyer3 CRC Department of Medical Oncology. University of Glasgow. Westem Infirmary Hospital. Glasgow Gll 6NT. UK; 2Glaxo Wellcome Research. Five Moore Drive. Research Triangle Park. NC 27709. USA; 'Fox Chase Cancer Center. 7701 Burholme Avenue. Philadelphia, PA 19111. USA: 4Thomas Jefferson University. Kimmel Cancer Institute. Bluemle Life Sciences Building. 233 S. 10th Street. Suite 502. Philadelphia. PA 19107. […] This study was designed to determine the maximum tolerated dose of Gl147211 as a 72-h infusion and to describe its pharmacokinetics and pharmacodynamics on this schedule. In a single-arm, rising-dose study in patients with advanced cancer, eight cohorts of three or more patients received 72-h infusions of G1147211 at doses ranging from 0.25 to 2.5 mg m-2 day-'. […] Whole-blood G1147211 lactone, total blood and total concentrations were measured during and over the 12 h following the infusion. […] Extensive phase 11 evaluation of this compound and further phase I trials evaluating more prolonged infusions are ongoing. […]

[4] = Initial stability studies of infusion solution; assay type: physicochemical; details: 5% dextrose (average pH 5)
From the text: as §2

[5] = tested on: melanoma cell line Lox; set-up: method as in Emerson et al. 1995; details: ref Emerson et al. 1995; cited from earlier work
[6] = tested on: in vitro models; set-up: method as in Slichenmyer et al. 1993: Emerson et al. 1995; details: ref Slichenmyer et al. 1993: Emerson et al. 1995; cited from earlier work
[7] = tested on: colon (HT29 and SW480), breast (MX 1), ovarian (SKOV3), prostate (PC3) and lung (H460) carcinoma xenografts; set-up: method as in Emerson et al. 1986. 1993. 1994. 1995; details: nude mice; ref Emerson et al. 1986. 1993. 1994. 1995; cited from earlier work

## CC[C@@]1(O)C(=O)OCc2c1cc1n(c2=O)Cc2c-1nc1cc3c(cc1c2CN1CCN(C)CC1)OCCO3 [GI147211, 7-4 methyl piperazinomethilene)-10.1 1-ethylenedioxy - 20-(S camptothecin]
[1]; at doses of 1.2 mg m-2 day-1 and above
  Css: > 1 ng/mL
[1]; human, in vivo
  Clearance, average: 1074 ml min-1 m-2
  Mean clearance values, range over the dose range: 776-1554 ml min-1 m-2
  Mean terminal elimination half-life: 7.5 h
  Renal clearance, average: 164 ml min-
[1]; human, in vivo, 0.25 mg
  Clearance, mean: 776 ml min-1 m-2
[1]; human, in vivo, 0.5 mg
  Clearance, mean: 864 ml min-1 m-2
[1]; human, in vivo, 1 mg
  Clearance, mean: 826 ml min-1 m-2
  Half-life, mean: 7.9 h
[1]; human, in vivo, 1.2 mg
  Clearance, mean: 1279 ml min-1 m-2
  Half-life, mean: 6.1 h
[1]; human, in vivo, 1.5 mg
  Clearance, mean: 1046 ml min-1 m-2
  Half-life, mean: 7.4 h
[1]; human, in vivo, 2 mg
  Clearance, mean: 1290 ml min-1 m-2
  Half-life, mean: 7.2 h
[1]; human, in vivo, 2.5 mg
  Clearance, mean: 1554 ml min-1 m-2
  Half-life, mean: 8.5 h
[1]; in vivo
  Total drug recovered unaltered in urine: ~11%
  Variation in Css with dose level: two- to threefold
[1]; lactone, 1.75 mg m-2 day-1, n=3
  Clearance, mean: 1138 ml min-1 m-2
[1]; lactone, whole blood, 0.25 mg m-2 day-1, n=6
  Css, mean: 0.25 ng/mL
[1]; lactone, whole blood, 1.0 mg m-2 day-1, n=5
  Css, mean: 0.86 ng/mL
[1]; lactone, whole blood, 1.2 mg m-2 day-1, n=3
  Css, mean: 0.74 ng/mL
[1]; lactone, whole blood, 1.5 mg m-2 day-1, n=10
  Css, mean: 1.09 ng/mL
[1]; lactone, whole blood, 1.75 mg m-2 day-1, n=3
  Css, mean: 1.10 ng/mL
[1]; lactone, whole blood, 2.0 mg m-2 day-1, n=11
  Css, mean: 1.09 ng/mL
[1]; lactone, whole blood, 2.5 mg m-2 day-1, n=2
  Css, mean: 1.21 ng/mL
[1]; total drug in urine, 15 subjects
  Mean fraction of drug excreted unchanged in the urine (fe): 0.114
[1]; whole blood
  Total blood concentrations (lactone plus carboxylate) relative to lactone concentrations: approximately four
[2]; 44 patients
  Number of minor responses: two
  Number of partial responses: Three
[2]; individual patients (breast, ovarian, colorectal cancer)
  Duration of partial response: 8 weeks and 30 weeks and ≥ 34 weeks
[2]; patient with colorectal cancer
  Decrease in hepatic lesions: 44%
[2]; patient with hepatoma
  Decrease in hepatic lesions: 36%
[3]
  EC50, half-maximal concentration (lactone Css) for % decrease in neutrophils (ANC): 0.75 ng/mL and 0.750 ng/mL
  EC50, half-maximal concentration (lactone Css) for % decrease in platelets: 1.141 ng/mL
[4]
  Stability as a concentrate or as a more dilute solution: stable
[5]
  50% growth inhibition concentration: 0.592 ng/mL
[6]
  Activity relative to topotecan: 2-5 times more active
[7]
  Anti-tumour activity in xenografts: confirmed the anti-tumour actixitv
